Measurements: patent US9714266B2, “Estra-1,3,5(10),16-tetraene-3-carboxamides for inhibition of 17β-hydroxysteroid dehydrogenase (AKR1C3)” (priority 2013, dated 2017)
pIC50: −log10 of the molar value. Values after ≈ are worked out from the molar mass of the structure shown. Values joined by “and” are separate entries in the source; they are usually repeats but may differ in a detail not shown here. Equal entries are not always repeated. Where two headings read alike, the source gives them in different places.

How the values were obtained:
[1] = molecular target: T1, AKR1C3 (Homo sapiens (Human), UniProt P42330); test: AKR1C3 inhibition in a cell-based system (transfected HEK293 cells, coumberol fluorescence); conditions: HEK293 cells transfected with AKR1C3 expression plasmid; read-out: Cellular AKR1C3 inhibition IC50
Protocol: The inhibition of AKR1C3 by the substances described in this invention was measured in a cell-based assay using […] as the substrate for the AKR1C3 (Halim, M., Yee, D. J., and Sames, D., J. AM. CHEM. SOC. 130, 14123-14128 (2008) and Yee, D. J., Balsanek, V., Bauman, D. R., Penning, T. M., and Sames, D., Proc. Natl. Acad. Sci. USA 103, 13304-13309 (2006)) (cf. Example 48).
The cell system used was HEK293 cells (ATCC, USA) (cell culture medium: DMEM, 1.5 g of glucose, 10% FCS, PSG). The cells were transfected with an AKR1C3 expression plasmid (pCMV6-AC-AKR1C3, GenBank Accession No. NM_003739.4) overnight (X-tremeGENE HP, Roche). The next morning, the cells were sown into black 96-well culture plates with a cell density of 40 000 cells/well (Greiner Bio-One, Frickenhausen, Germany). 7 h later, the cells were incubated with the test substances (dissolved in 100× concentration in DMSO, final concentration between 10^−11M and 10^−5M) and […] (dissolved in cell culture medium, final concentration 5×10^−6M) overnight. The following morning, the fluorescence of coumberol was measured at 535 nm (excitation at 355 nm) with a suitable measuring instrument (Mithras, from Berthold). […] The data were normalized (transfected cells without inhibitor, only DMSO=0% inhibition; transfected cells, 10 μM EM-1404 inhibitor [F. Labrie et al. U.S. Pat. No. 6,541,463, 2003]=100% inhibition) and IC50 values were calculated by a 4-parameter fit.

[2] = molecular target: T1, AKR1C3; test: AKR1C3 enzyme assay (coumberone reduction, fluorescence); assay type: biochemical; conditions: recombinant human AKR1C3, coumberone 0.3 μM, NADPH 10 μM; read-out: AKR1C3 enzyme inhibition IC50
Protocol: The AKR1C3-inhibitory action of the substances of this invention was measured in the AKR1C3 assay described in the paragraphs which follow. Essentially, the enzyme activity is measured by quantifying the coumberol formed from coumberone ([…]., and […]. AM. CHEM. SOC. 130, 14123-14128 (2008) […]., Bauman, D. R., Penning, T. M., and […]., Proc. Natl. Acad. Sci. USA 103, 13304-13309 (2006)). In this assay, the increase in the highly fluorescent coumberol can be determined by NADPH (nicotinamide adenine dinucleotide phosphate)-dependent reduction of the nonfluorescent coumberone by AKR1C3. […] NM_003739). This was expressed as the GST (glutathione S-transferase) fusion protein in E. coli and purified by means of glutathione-Sepharose affinity chromatography. The GST was removed by thrombin digestion with subsequent size exclusion chromatography (Dufort, I., Rheault, P., Huang, X F., Soucy, P., and Luu-The, V., Endocrinology 140, 568-574 (1999)). […] The concentration of the AKR1C3 was matched to the respective activity of the enzyme preparation and set such that the assay worked within the linear range. Typical concentrations were in the region of 1 nM. The reaction was stopped by adding 5 μl of a stop solution consisting of the inhibitor EM-1404 [F. Labrie et al. U.S. Pat. […] Subsequently, the fluorescence of coumberol was measured at 520 nm (excitation at 380 nm) with a suitable measuring instrument (Pherastar from BMG Labtechnologies).

[3] = Kinetic solubility by laser nephelometry; assay type: physicochemical; conditions: kinetic from dmso stock
Protocol: The kinetic solubilities of the inventive substances were determined by laser nephelometry.
The data were recorded using the following instruments:
Liquid handling system: Hamilton Star
Nephelometer: Nepheloskan Ascent
The following chemicals and materials were used: […]
disodium hydrogenphosphate dihydrate potassium dihydrogenphosphate
Preparation of phosphate buffer pH 7.4:
• Solution 1: 9.71 g of disodium hydrogenphosphate dihydrate and • 1.65 g of potassium dihydrogenphosphate dissolved in 1 liter of water • Solution 2: 10 mg of gum arabic dissolved in 1 liter of water […]
150 ml of solution 1 and 100 ml of solution 2 were diluted with 750 ml of water.
150 μl of a 10 mM DMSO stock solution were pipetted into a plate (deep-well plate, Abgene, PP, 1.2 ml). The stock solution was diluted with DMSO, which led to a new multi-titre plate (MTP, Greiner bio-one, PS, V-Form) with eight concentrations: 10/5/2.5/1.25/0.625/0.313/0.156 and 0.078 mM. 261 μl of phosphate buffer were transferred into a further plate (96 cliniplate, UB Thermo Electron Corporation) and admixed with 9 μl of the DMSO stock solutions.
The concentration of the DMSO cosolvent was kept constant at 3%.
The plates obtained (cliniplates) were analysed in the nephelometer.

[4] = phosphate buffer with 3% DMSO, aqueous buffer, phosphate buffer pH 7.4, 3% DMSO, read-out: Nephelometric solubility at pH = 7.4

T1 sequence (P42330 whole entry): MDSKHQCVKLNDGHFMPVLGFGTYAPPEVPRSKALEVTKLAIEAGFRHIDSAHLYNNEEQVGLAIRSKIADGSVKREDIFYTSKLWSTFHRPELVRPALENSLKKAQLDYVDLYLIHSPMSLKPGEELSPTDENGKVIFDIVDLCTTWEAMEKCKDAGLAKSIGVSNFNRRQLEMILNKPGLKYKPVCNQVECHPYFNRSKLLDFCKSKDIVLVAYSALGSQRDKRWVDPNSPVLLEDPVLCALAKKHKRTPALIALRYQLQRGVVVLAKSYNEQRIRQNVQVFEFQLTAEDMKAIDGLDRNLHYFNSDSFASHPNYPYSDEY

Row | SMILES | pIC50 [1] | pIC50 [2] | solubility [3, 4] | solubility ([3]; pH 7.4, aqueous buffer)
1 | C[C@@H](CO)CCNC(=O)c1ccc2c(c1)CC[C@@H]1[C@@H]2CC[C@]2(C)C(c3cncc(F)c3)=CC[C@@H]12 [Example 12, 17-(5-fluoropyridin-3-yl)-N—[(R)-3-(hydroxymethyl)butyl]estra-1,3,5(10),16-tetraene-3-carboxamide] | 7.17 and 7.02 and 7.37 and 7.64 | 7.68 and 7.70 |  | 
2 | CC(C)[C@H](CO)NC(=O)c1ccc2c(c1)CC[C@@H]1[C@@H]2CC[C@]2(C)C(c3cncc(F)c3)=CC[C@@H]12 [Example 16, 17-(5-fluoropyridin-3-yl)-N—[(R)-1-(hydroxymethyl)-2-methylpropyl]oestra-1,3,5(10),16-tetraene-3-carboxamide] | 7.01 and 7.13 | 7.82 and 7.38 |  | 
3 | C[C@]12CC[C@@H]3c4ccc(C(=O)NC[C@H](O)CO)cc4CC[C@H]3[C@@H]1CC=C2c1cncc(F)c1 [Example 33, N—[(S)-2,3-dihydroxypropyl]-17-(5-fluoropyridin-3-yl)oestra-1,3,5(10),16-tetraene-3-carboxamide] |  | 8.40 and 8.30 | 80 µg/mL (≈ 178 µM) | 
4 | C[C@]12CC[C@@H]3c4ccc(C(=O)NCc5nnn[nH]5)cc4CC[C@H]3[C@@H]1CC=C2c1cncc(F)c1 [Example 22, 17-(5-fluoropyridin-3-yl)-N-(1H-tetrazol-5-ylmethyl)oestra-1,3,5(10),16-tetraene-3-carboxamide] |  | 8.30 |  | 153 µg/mL (≈ 334 µM)
5 | CC1(C)CC[C@@]2(CC[C@H]3[C@@H]4CCc5cc(C(N)=O)ccc5[C@H]4CC[C@@]32C)OC1=O [EM-1404, reference compound] |  |  | 18 µg/mL (≈ 45.5 µM) | 
6 | C[C@]12CC[C@@H]3c4ccc(C(=O)NCCc5nnn[nH]5)cc4CC[C@H]3[C@@H]1CC=C2c1cncc(F)c1 [Example 21, 17-(5-fluoropyridin-3-yl)-N-[2-(1H-tetrazol-5-yl)ethyl]oestra-1,3,5(10),16-tetraene-3-carboxamide] |  | 8.30 |  | 158 µg/mL (≈ 334 µM)
7 | C[C@@H](O)CNC(=O)c1ccc2c(c1)CC[C@@H]1[C@@H]2CC[C@]2(C)C(c3cncc(F)c3)=CC[C@@H]12 [Example 38, 17-(5-fluoropyridin-3-yl)-N—[(R)-2-hydroxypropyl]oestra-1,3,5(10),16-tetraene-3-carboxamide] |  | 8.40 |  | 145 µg/mL (≈ 334 µM)
8 | C[C@]12CC[C@@H]3c4ccc(C(=O)N5CCC[C@H]5c5nnn[nH]5)cc4CC[C@H]3[C@@H]1CC=C2c1cncc(F)c1 [Example 28, 17-(5-fluoropyridin-3-yl)oestra-1,3,5(10),16-tetraen-3-yl (S)-2-(1H-tetrazol-5-yl)pyrrolidin-1-yl ketone] |  | 8.05 |  | 166 µg/mL (≈ 333 µM)
9 | CNC(=O)[C@@H]1CCCN1C(=O)c1ccc2c(c1)CC[C@@H]1[C@@H]2CC[C@]2(C)C(c3cncc(F)c3)=CC[C@@H]12 [Example 29, 1-{[17-(5-fluoropyridin-3-yl)oestra-1,3,5(10),16-tetraen-3-yl]carbonyl}-N-methyl-L-prolinamide] |  | 8.00 |  | 24 µg/mL (≈ 49.2 µM)
10 | C[C@]12CC[C@@H]3c4ccc(C(=O)N5CCC[C@@H](O)C5)cc4CC[C@H]3[C@@H]1CC=C2c1cncc(F)c1 [Example 17, 17-(5-fluoropyridin-3-yl)oestra-1,3,5(10),16-tetraen-3-yl (R)-3-hydroxypiperidin-1-yl ketone] | 7.47 and 7.55 | 7.54 and 7.70 |  | 
11 | C[C@]12C[C@H](F)[C@@H]3c4ccc(C(N)=O)cc4CC[C@H]3[C@@H]1CC=C2c1cncc(F)c1 [Example 7, 11β-fluoro-17-(5-fluoropyridin-3-yl)oestra-1,3,5(10),16-tetraene-3-carboxamide] | 7.08 and 6.82 | 7.57 |  | 
12 | C[C@@H](CO)NC(=O)c1ccc2c(c1)CC[C@@H]1[C@@H]2CC[C@]2(C)C(c3cncc(F)c3)=CC[C@@H]12 [Example 40, 17-(5-fluoropyridin-3-yl)-N—[(S)-1-(hydroxymethyl)ethyl]oestra-1,3,5(10),16-tetraene-3-carboxamide] |  |  |  | 145 µg/mL (≈ 334 µM)
13 | CC1(CNC(=O)c2ccc3c(c2)CC[C@@H]2[C@@H]3CC[C@]3(C)C(c4cncc(F)c4)=CC[C@@H]23)COC1 [Example 43, 17-(5-fluoropyridin-3-yl)-N-[(3-methyloxetan-3-yl)methyl]oestra-1,3,5(10),16-tetraene-3-carboxamide] |  | 8.15 |  | 154 µg/mL (≈ 334 µM)
14 | CN(CC(O)CO)C(=O)c1ccc2c(c1)CC[C@@H]1[C@@H]2CC[C@]2(C)C(c3cncc(F)c3)=CC[C@@H]12 (mixture of isomers) [Example 35, N—[(RS)-2,3-dihydroxypropyl]-17-(5-fluoropyridin-3-yl)-N-methyloestra-1,3,5(10),16-tetraene-3-carboxamide] |  | 7.77 | 22 µg/mL | 
15 | C[C@]12C[C@H](F)[C@@H]3c4ccc(C(=O)NCCS(N)(=O)=O)cc4CC[C@H]3[C@@H]1CC=C2c1cncc(F)c1 [Example 8, 11β-fluoro-17-(5-fluoropyridin-3-yl)-N-(2-sulphamoylethyl)oestra-1,3,5(10),16-tetraene-3-carboxamide] |  | 7.14 |  | 
16 | C[C@]12CC[C@@H]3c4ccc(C(=O)N5CCC[C@H]5C(N)=O)cc4CC[C@H]3[C@@H]1CC=C2c1cncc(F)c1 [Example 30, 1-{[17-(5-fluoropyridin-3-yl)oestra-1,3,5(10),16-tetraen-3-yl]carbonyl}-L-prolinamide] |  | 7.92 |  | 
